Values joined by “and” are separate entries in the source; they are usually repeats but may differ in a detail not shown here. Equal entries are not always repeated.

The term viability, T/C denotes the ratio of treated to control. As usually defined, the IC50 is the concentration at which inhibition is half-maximal.

For this assay, the system named is 287954-098-R-J1 tumor spheroid viability. The assay can be described thus: Anticancer human tumor 287954-098-R-J1 patient-derived Ewing sarcoma cell line growth inhibition. The following applies: spheroids with HUVEC and MSC; for viability, T/C: stronger effect = lower value. In short, it runs like this:
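Complex tumor spheroids combined malignant cells with endothelial cells and mesenchymal stem cells. DNA-damaging drugs and DNA repair inhibitors were tested alone and in combination, at half-log dilutions down from clinical Cmax (top 10 microM if Cmax unknown), 0.25% DMSO final.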

[1] abbreviates: curve of first compound, second compound 0.003 µM.
[2] abbreviates: curve of first compound, second compound 0.00949 µM.
Where [3] appears, read: curve of first compound, second compound 0.03 µM.
[4] abbreviates: curve of first compound, second compound 0.0949 µM.
The mark [5] stands for this setting: curve of first compound, second compound 0.3 µM.
Where [6] appears, read: second compound 0.003 µM, first compound 0.0316 µM.
[7] abbreviates: second compound 0.003 µM, first compound 0.1 µM.
Setting [8] is: second compound 0.003 µM, first compound 0.316 µM.
[9] abbreviates: second compound 0.003 µM, first compound 1 µM.
The mark [10] stands for this setting: second compound 0.003 µM, first compound 3.16 µM.
[11] abbreviates: second compound 0.003 µM, first compound 10 µM.
The mark [12] stands for this setting: second compound 0.00949 µM, first compound 0.0316 µM.
Setting [13] is: second compound 0.00949 µM, first compound 0.1 µM.
The mark [14] stands for this setting: second compound 0.00949 µM, first compound 0.316 µM.
The mark [15] stands for this setting: second compound 0.00949 µM, first compound 1 µM.
Setting [16] is: second compound 0.00949 µM, first compound 3.16 µM.
The mark [17] stands for this setting: second compound 0.00949 µM, first compound 10 µM.
[18] abbreviates: second compound 0.03 µM, first compound 0.0316 µM.
Where [19] appears, read: second compound 0.03 µM, first compound 0.1 µM.
Where [20] appears, read: second compound 0.03 µM, first compound 0.316 µM.
[21] abbreviates: second compound 0.03 µM, first compound 1 µM.
The mark [22] stands for this setting: second compound 0.03 µM, first compound 3.16 µM.
Setting [23] is: second compound 0.03 µM, first compound 10 µM.
Setting [24] is: second compound 0.0949 µM, first compound 0.0316 µM.
Where [25] appears, read: second compound 0.0949 µM, first compound 0.1 µM.
Setting [26] is: second compound 0.0949 µM, first compound 0.316 µM.
[27] abbreviates: second compound 0.0949 µM, first compound 1 µM.
[28] abbreviates: second compound 0.0949 µM, first compound 3.16 µM.
Setting [29] is: second compound 0.0949 µM, first compound 10 µM.
Setting [30] is: second compound 0.3 µM, first compound 0.0316 µM.
Where [31] appears, read: second compound 0.3 µM, first compound 0.1 µM.
Where [32] appears, read: second compound 0.3 µM, first compound 0.316 µM.
Setting [33] is: second compound 0.3 µM, first compound 1 µM.
Setting [34] is: second compound 0.3 µM, first compound 3.16 µM.
The mark [35] stands for this setting: second compound 0.3 µM, first compound 10 µM.
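Further: spheroids exposed to compound for 7 days before viability readout.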
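Wherever viability, T/C is given: luminescent signal taken as surrogate of viable cell content; 100% = DMSO vehicle control viability and lower means growth inhibition.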

Regarding `CNCc1ccc(-c2cc(-c3nc(-c4ccc(S(=O)(=O)C(C)C)cc4)cnc3N)on2)cc1`, the viability, T/C is 103% (2×) and 109% (compound 0.00949 µM); 108% and 117% and 107% (compound 0.03 µM); 110% and 112% and 105% (compound 0.0949 µM); 107% and 103% (2×) (compound 0.3 µM); 0.28% and 0.55% and 0.27% (compound 0.949 µM); 0.18% and 0.53% and 0.23% (compound 3 µM). Besides, the IC50 (curve of compound) is 555 nM and 545 nM and 542 nM.

On to `Cc1cc(C)c(CNC(=O)c2cc(-c3ccc(CN4CCOCC4)cc3)cc3c2cnn3C2CCCC2)c(=O)[nH]1`, for which the viability, T/C (compound 0.0316 µM) is 104% and 106% and 95.4%; the viability, T/C (compound 0.1 µM) was 95.6% and 106% and 114%; the viability, T/C (compound 0.316 µM) is 99.8% and 99.5% and 103%; the viability, T/C (compound 1 µM) was 102% and 97.1% and 101%; the viability, T/C (compound 3.16 µM) was 98.2% and 112% and 109%; the viability, T/C (compound 10 µM) was 113% and 108% and 114%. The IC50 (curve of compound) is over 10000 nM.

On to `COc1cc(C)[nH]c(=O)c1CN1CCc2c(Cl)cc(C(OC)C3COC3)c(Cl)c2C1=O` (centres undefined) + CC[C@@]1(O)C(=O)OCc2c1cc1n(c2=O)Cc2cc3c(CN(C)C)c(O)ccc3nc2-1, for which the IC50 was over 10000 nM under setting [1]; over 10000 nM under setting [2]; 117 nM under setting [3]; under 31.6 nM under setting [4]; under 31.6 nM under setting [5]. In addition, the viability, T/C was 94.9% under setting [6]; 94.7% under setting [7]; 99.9% under setting [8]; 95.5% under setting [9]; 88% under setting [10]; 93% under setting [11]. For the same compound, the viability, T/C is 108% under setting [12]; 99.6% under setting [13]; 92.3% under setting [14]; 89.1% under setting [15]; 95.1% under setting [16]; 92.8% under setting [17]. For the same compound, the viability, T/C runs as follows: under setting [18], 63.6%; under setting [19], 36.6%; under setting [20], 50.9%; under setting [21], 36.4%; under setting [22], 28%; under setting [23], 2.56%. The viability, T/C runs as follows: under setting [24], 1.65%; under setting [25], 1.55%; under setting [26], 1.34%; under setting [27], 1.37%; under setting [28], 1.24%; under setting [29], 1.63%. Further, the viability, T/C under setting [30] is 1.38%; the viability, T/C under setting [31] is 1.47%; the viability, T/C under setting [32] is 1.35%; the viability, T/C under setting [33] is 1.69%; the viability, T/C under setting [34] is 1.33%; the viability, T/C under setting [35] was 1.57%.

As to `CC(C)n1c(=O)n(C)c2cnc3cc(F)c(-c4ccc(OCCCN5CCCCC5)nc4)cc3c21` + CC[C@@]1(O)C(=O)OCc2c1cc1n(c2=O)Cc2cc3c(CN(C)C)c(O)ccc3nc2-1, the IC50 is under 31.6 nM under setting [1]; under 31.6 nM under setting [2]; under 31.6 nM under setting [3]; under 31.6 nM under setting [4]; under 31.6 nM under setting [5]. Also, the viability, T/C is, setting by setting: under setting [6], 24.4%; under setting [7], 25.2%; under setting [8], 14.1%; under setting [9], 18%; under setting [10], 18.6%; under setting [11], 0.6%. The viability, T/C under setting [12] is 1.98%; the viability, T/C under setting [13] is 1.84%; the viability, T/C under setting [14] is 1.79%; the viability, T/C under setting [15] was 1.85%; the viability, T/C under setting [16] was 1.45%; the viability, T/C under setting [17] is 0.25%. Also, the viability, T/C was 1.57% under setting [18]; 1.36% under setting [19]; 1.48% under setting [20]; 1.56% under setting [21]; 1.35% under setting [22]; 0.27% under setting [23]. Besides, the viability, T/C under setting [24] was 1.39%; the viability, T/C under setting [25] was 1.29%; the viability, T/C under setting [26] is 1.62%; the viability, T/C under setting [27] is 1.24%; the viability, T/C under setting [28] was 1.02%; the viability, T/C under setting [29] was 0.43%. For the same compound, the viability, T/C is 1.39% under setting [30]; 1.68% under setting [31]; 1.34% under setting [32]; 1.48% under setting [33]; 1.35% under setting [34]; 0.58% under setting [35].
